Experimental data taken from patent US9023847B2, “Azaheterocyclic compounds” (Merck Patent GmbH, priority 2009, dated 2015).

target: T1, P70S6K (T412E mutant, Millipore) (Homo sapiens, UniProt P23443, T412E); assay: p70S6K enzyme assay; format: biochemical; conditions: class symbol; 3 nM P70S6K, 24 μM ATP; read-out: IC50 (p70S6K)
T1 construct: purchased Millipore
Description: P70S6K inhibitor compounds are diluted and plated in 96 well plates. A reaction mixture including the following components is then added to the compound plate to initiate the enzyme reaction; P70S6K (3 nM, T412E mutant, Millipore) is mixed with 24 μM ATP in an assay buffer containing 100 mM Hepes (pH 7.5), 5 mM MgCl2, 1 mM DTT, 0.015% Brij and 1 μM of the substrate peptide FITC-AHA-AKRRRLSSLRA-OH (derived from the S6 ribosomal protein sequence, FITC=fluorescein isothiocyanate, AHA=6-aminohexanoic acid). The reaction is incubated for 90 min at 25° C., before the addition of 10 mM EDTA to stop the reaction. The proportion of substrate and product (phosphorylated) peptide is analysed on a Caliper Life Sciences Lab Chip 3000, using a pressure of −1.4 psi, and upstream and downstream voltages of −3000 and −700 respectively. Product peaks are resolved before substrate peaks on the resulting chromatograms.

T1 sequence (P23443 whole entry T412E): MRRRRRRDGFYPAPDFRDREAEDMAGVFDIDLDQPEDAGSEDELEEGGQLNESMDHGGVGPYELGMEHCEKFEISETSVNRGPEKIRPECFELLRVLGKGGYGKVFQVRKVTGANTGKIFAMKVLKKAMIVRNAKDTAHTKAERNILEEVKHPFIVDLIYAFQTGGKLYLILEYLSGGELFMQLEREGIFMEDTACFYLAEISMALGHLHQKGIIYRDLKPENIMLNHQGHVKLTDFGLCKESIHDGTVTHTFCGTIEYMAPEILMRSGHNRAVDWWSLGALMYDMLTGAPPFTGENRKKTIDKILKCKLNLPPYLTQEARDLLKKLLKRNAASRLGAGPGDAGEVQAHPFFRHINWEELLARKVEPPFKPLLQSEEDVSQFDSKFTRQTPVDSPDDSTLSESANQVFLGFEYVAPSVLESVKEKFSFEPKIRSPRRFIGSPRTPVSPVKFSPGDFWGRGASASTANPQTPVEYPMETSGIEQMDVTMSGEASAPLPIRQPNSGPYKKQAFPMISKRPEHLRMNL

| Structure (SMILES) | IC50 [µM] |
| --- | --- |
| O=C(CNC(=O)c1sccc1Nc1ccnc2[nH]ccc12)NCc1ccccc1 [Example 73, 3-(1H-Pyrrolo[2,3-b]pyridin-4-ylamino)-thiophene-2-carboxylic acid (benzylcarbamoyl-methyl)-amide] | 0.1 to 1 |
| O=C(NCCNCc1ccncc1)c1sccc1Nc1ccnc2[nH]ccc12 [Example 74, 3-(1H-Pyrrolo[2,3-b]pyridin-4-ylamino)-thiophene-2-carboxylic acid {2-[(pyridin-4-ylmethyl)-amino]-ethyl}-amide] | 0.1 to 1 |
| O=C(N[C@H](CO)c1ccccc1)c1ccsc1Nc1ccnc2[nH]ccc12 [Example 75, 2-(1H-Pyrrolo[2,3-b]pyridin-4-ylamino)-thiophene-3-carboxylic acid ((S)-2-hydroxy-1-phenyl-ethyl)-amide] | < 0.1 |
| [N-]=[N+]=NCC(NC(=O)c1sccc1Nc1ccnc2[nH]ccc12)c1ccccc1 (centres unmarked) [Example 76, 3-(1H-Pyrrolo[2,3-b]pyridin-4-ylamino)-thiophene-2-carboxylic acid (2-azido-1-phenyl-ethyl)-amide] | < 0.1 |
| NCC(NC(=O)c1sccc1Nc1ccnc2[nH]ccc12)c1ccccc1 (centres unmarked) [Example 77, 3-(1H-Pyrrolo[2,3-b]pyridin-4-ylamino)-thiophene-2-carboxylic acid (2-amino-1-phenyl-ethyl)-amide] | < 0.1 |
| NC(CNC(=O)c1sccc1Nc1ccnc2[nH]ccc12)c1ccccc1 (centres unmarked) [Example 78, 3-(1H-Pyrrolo[2,3-b]pyridin-4-ylamino)-thiophene-2-carboxylic acid (2-amino-2-phenyl-ethyl)-amide] | < 0.1 |
| Cc1cc(Nc2ccnc3[nH]ccc23)c(C(=O)NCCNCc2ccccc2)s1 [Example 79, 5-Methyl-3-(1H-pyrrolo[2,3-b]pyridin-4-ylamino)-thiophene-2-carboxylic acid (2-benzylamino-ethyl)-amide] | 1 to 10 |
| Cc1cc(Nc2ccnc3[nH]ccc23)c(C(=O)N[C@H](CO)c2ccccc2)s1 [Example 80, 5-Methyl-3-(1H-pyrrolo[2,3-b]pyridin-4-ylamino)-thiophene-2-carboxylicacid ((S)-2-hydroxy-1-phenyl-ethyl)-amide] | 0.1 to 1 |
| O=C(N[C@@H](CO)Cc1ccccc1)c1sccc1Nc1ccnc2[nH]ccc12 [Example 81, 3-(1H-Pyrrolo[2,3-b]pyridin-4-ylamino)-thiophene-2-carboxylic acid ((R)-1-benzyl-2-hydroxy-ethyl)-amide] | 1 to 10 |
| O=C(N[C@@H](CO)[C@@H](O)c1ccccc1)c1sccc1Nc1ccnc2[nH]ccc12 [Example 84, 3-(1H-Pyrrolo[2,3-b]pyridin-4-ylamino)-thiophene-2-carboxylic acid ((1S,2S)-2-hydroxy-1-hydroxymethyl-2-phenyl-ethyl)-amide] | 1 to 10 |
| COC(=O)C(CO)NC(=O)c1sccc1Nc1ccnc2[nH]ccc12 (centres unmarked) [Example 85, 3-Hydroxy-2-{[3-(1H-pyrrolo[2,3-b]pyridin-4-ylamino)-thiophene-2-carbonyl]-amino}-propionic acid methyl ester] | 0.1 to 1 |
| O=C(N[C@H](CO)Cc1ccccc1)c1sccc1Nc1ccnc2[nH]ccc12 [Example 86, 3-(1H-Pyrrolo[2,3-b]pyridin-4-ylamino)-thiophene-2-carboxylic acid ((S)-1-benzyl-2-hydroxy-ethyl)-amide] | < 0.1 |

Other lines, results leading:

| IC50 [µM] | Structure (SMILES) |
| --- | --- |
| < 0.1 | Nc1cccc(CNC(=O)c2sccc2Nc2ccnc3[nH]ccc23)c1 [Example 87, 3-(1H-Pyrrolo[2,3-b]pyridin-4-ylamino)-thiophene-2-carboxylic acid 3-amino-benzylamide] |
| 0.1 to 1 | O=C(NC(CO)C(=O)NCc1ccccc1)c1sccc1Nc1ccnc2[nH]ccc12 (centres unmarked) [Example 88, 3-(1H-Pyrrolo[2,3-b]pyridin-4-ylamino)-thiophene-2-carboxylic acid (1-benzylcarbamoyl-2-hydroxy-ethyl)-amide] |
| 0.1 to 1 | O=C(NC(CO)C(=O)NCc1ccc(Cl)c(C(F)(F)F)c1)c1sccc1Nc1ccnc2[nH]ccc12 (centres unmarked) [Example 89, 3-(1H-Pyrrolo[2,3-b]pyridin-4-ylamino)-thiophene-2-carboxylic acid [1-(4-chloro-3-trifluoromethyl-benzylcarbamoyl)-2-hydroxy-ethyl]-amide] |
| < 0.1 | O=C(NCCNCc1ccc(Cl)c(C(F)(F)F)c1)c1sccc1Nc1ccnc2[nH]ccc12 [Example 90, 3-(1H-Pyrrolo[2,3-b]pyridin-4-ylamino)-thiophene-2-carboxylic acid [2-(4-chloro-3-trifluoromethyl-benzylamino)-ethyl]-amide] |
| 0.1 to 1 | CC(C)(C)OC(=O)N1CCCC(NC(=O)c2sccc2Nc2ccnc3[nH]ccc23)C1 (centres unmarked) [Example 91, 3-{[3-(1H-Pyrrolo[2,3-b]pyridin-4-ylamino)-thiophene-2-carbonyl]-amino}-piperidine-1-carboxylic acid tert-butyl ester] |
| 0.1 to 1 | CC(C)(C)OC(=O)N1CCC[C@@H]1CNC(=O)c1sccc1Nc1ccnc2[nH]ccc12 [Example 92, (R)-2-({[3-(1H-Pyrrolo[2,3-b]pyridin-4-ylamino)-thiophene-2-carbonyl]-amino}methyl)pyrrolidine-1-carboxylic acid tert-butyl ester] |
| 0.1 to 1 | O=C(NC[C@H]1CCCN1)c1sccc1Nc1ccnc2[nH]ccc12 [Example 93, 3-(1H-Pyrrolo[2,3-b]pyridin-4-ylamino)-thiophene-2-carboxylic acid ((R)-1-pyrrolidin-2-ylmethyl)-amide] |
| < 0.1 | COc1cccc(CNC(=O)c2sccc2Nc2ccnc3[nH]ccc23)c1 [Example 94, 3-(1H-Pyrrolo[2,3-b]pyridin-4-ylamino)-thiophene-2-carboxylic acid 3-methoxybenzylamide] |
| 0.1 to 1 | COc1cc(CNC(=O)c2sccc2Nc2ccnc3[nH]ccc23)cc(OC)c1 [Example 95, 3-(1H-Pyrrolo[2,3-b]pyridin-4-ylamino)-thiophene-2-carboxylic acid 3,5-dimethoxy-benzylamide] |
| 0.1 to 1 | CC(C)[C@@H](CO)NC(=O)c1sccc1Nc1ccnc2[nH]ccc12 [Example 96, 3-(1H-Pyrrolo[2,3-b]pyridin-4-ylamino)-thiophene-2-carboxylic acid ((S)-1-hydroxymethyl-2-methyl-propyl)-amide] |
| 0.1 to 1 | CC(C)C[C@@H](CO)NC(=O)c1sccc1Nc1ccnc2[nH]ccc12 [Example 97, 3-(1H-Pyrrolo[2,3-b]pyridin-4-ylamino)-thiophene-2-carboxylic acid ((S)-1-hydroxymethyl-3-methyl-butyl)-amide] |
| < 0.1 | O=C(NCc1ccc(Cl)c(C(F)(F)F)c1)c1sccc1Nc1ccnc2[nH]ccc12 [Example 98, 3-(1H-Pyrrolo[2,3-b]pyridin-4-ylamino)-thiophene-2-carboxylic acid 4-chloro-3-trifluoromethyl-benzylamide] |

same assay, conditions: numeric bound printed under the example; read-out: IC50 (p70S6K)

| IC50 [µM] | Structure (SMILES) |
| --- | --- |
| > 10 | O=C(NCCNCc1ccccc1)c1sc2ccccc2c1Nc1ccnc2[nH]ccc12 [Example 82, 3-(1H-Pyrrolo[2,3-b]pyridin-4-ylamino)-benzo[b]thiophene-2-carboxylic acid (2-benzylamino-ethyl)-amide] |
| > 10 | O=C(N[C@H](CO)c1ccccc1)c1sc2ccccc2c1Nc1ccnc2[nH]ccc12 [Example 83, 3-(1H-Pyrrolo[2,3-b]pyridin-4-ylamino)-benzo[b]thiophene-2-carboxylic acid ((S)-2-hydroxy-1-phenyl-ethyl)-amide] |
